Square brackets hold non-standard residues; d marks the D form. Ends that are not written are not given here. Peptide text beside a SMILES is read from it. Ahx = NCCCCCC(=O)O
What was measured:
[1] = target: T1, rat pancreatic islet (wild type) GIP-receptor (Rattus norvegicus, UniProt P43219); assay: biochemical; assay type: binding; conditions: for Receptor Binding % Displacement at 10 μM: 10 μM peptide, 125I-GIP; for inhibition at 20 µM: read-out: Receptor Binding % Displacement at 20 μM; for Percent displacement of 125I-GIP from wtGIPR cells: 50 micromolar peptide analogue, FIG. 9
T1 construct: expressed in transfected cells; host or cells: CHO-K1 (Chinese hamster ovary)
T1 sequence (P43219 19-455): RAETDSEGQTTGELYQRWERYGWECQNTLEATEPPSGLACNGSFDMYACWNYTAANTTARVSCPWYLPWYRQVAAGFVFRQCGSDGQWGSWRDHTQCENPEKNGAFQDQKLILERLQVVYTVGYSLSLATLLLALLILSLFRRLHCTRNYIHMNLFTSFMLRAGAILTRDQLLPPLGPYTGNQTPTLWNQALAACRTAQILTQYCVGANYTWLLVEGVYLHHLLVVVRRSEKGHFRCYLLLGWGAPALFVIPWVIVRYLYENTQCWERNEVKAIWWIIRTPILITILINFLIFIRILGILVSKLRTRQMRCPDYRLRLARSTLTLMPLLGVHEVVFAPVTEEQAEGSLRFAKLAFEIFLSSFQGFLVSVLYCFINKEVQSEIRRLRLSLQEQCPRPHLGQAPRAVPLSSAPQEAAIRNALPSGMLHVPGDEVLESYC
Method: (§1) Cells were cultured in DMEM/F12, supplemented with 10% newborn calf serum, 50 units/ml penicillin G, and 50 μg/ml streptomycin (Culture media and antibiotics from Gibco BRL, Life Technologies). Cells were grown in 75 cm^2 flasks until 80-90% confluent, when they were split and seeded onto 24 well plates at a density of 50,000 cells/well. Experiments were carried out 48 h later.
Binding studies using ^125I-labeled spGIP1-42, purified by high performance liquid chromatography (HPLC), were performed essentially as described previously-[21]. wtGIP-R1 Cells (1-5×10^5/well) were washed twice at 4° C. in binding buffer (BB), consisting of DMEM/F12 (GIBCO), 15 mM HEPES, 0.1% bovine serum albumin (BSA), 1% Trasylol (aprotinin; Bayer), pH 7.4. They were incubated for 12-16 h at 4° C. with ^125I-spGIP (50,000 cpm) in the presence or absence of unlabeled GIP1-42 or analogue. Following incubation, cells were washed twice with ice cold buffer, solubilized with 0.1 M NaOH (1 ml), and transferred to culture tubes for counting of cell-associated radioactivity. Nonspecific binding was defined as that measured in the presence of 1 μM GIP1-42 or GIP1-30, and specific binding expressed as % of binding in the absence of competitor (% B/Bo).

[2] = target: T1, rat pancreatic islet (wild type) GIP-receptor; assay: cAMP production in CHO-K1 cells expressing the GIP-receptor (wtGIP-R1 cells); assay type: cell-based; conditions: for cAMP Production (Fold Basal) 10 μM: 10 μM peptide; for cAMP Production (Fold Basal) 10 μM / cAMP Production (Fold Basal) 20 μM: basal cyclic AMP = 2.737 ± 0.079 fmol/1000 cells; for cAMP Production (Fold Basal) 20 μM: 20 μM peptide; for cAMP Production Max. cAMP (Fold Basal): Table 3, cyclic AMP stimulated by 20 μM peptide if plateau levels were not achieved
Method: as §1
Cells were extracted with 70% ethanol and cAMP levels measured by radioimmunoassay (Biomedical Technologies, Stoughton, Mass.). Data are expressed as fmol/1000 cells or % maximal GIP1-42-stimulated cAMP production (inhibition experiments).

Molecule | cAMP Production Max. cAMP (Fold Basal) [2] | inhibition at 20 µM [1] | further results
1-7NH2: GIP fragment 1-7 amide (YAEGTFI-NH2) |  |  | Receptor Binding % Displacement at 10 μM [1]: −6.1 ± 3.4%
CC[C@H](C)[C@H](NC(=O)[C@H](CCCCN)NC(=O)[C@@H](N)CC(=O)O)C(=O)N[C@@H](Cc1c[nH]cn1)C(=O)N[C@@H](CCC(N)=O)C(=O)N[C@@H](CCC(N)=O)C(=O)N[C@@H](CC(=O)O)C(=O)N[C@@H](Cc1ccccc1)C(=O)N[C@H](C(=O)N[C@@H](CC(N)=O)C(=O)N[C@@H](Cc1c[nH]c2ccccc12)C(=O)N[C@@H](CC(C)C)C(=O)N[C@@H](CC(C)C)C(=O)N[C@@H](C)C(=O)N[C@@H](CCC(N)=O)C(=O)N[C@@H](CCCCN)C(=O)NCC(=O)N[C@@H](CCCCN)C(=O)N[C@@H](CCCCN)C(=O)N[C@@H](CC(N)=O)C(=O)N[C@@H](CC(=O)O)C(=O)N[C@@H](Cc1c[nH]c2ccccc12)C(=O)N[C@@H](CCCCN)C(=O)N[C@@H](Cc1c[nH]cn1)C(=O)N[C@@H](CC(N)=O)C(=O)N[C@H](C(=O)N[C@H](C(=O)N[C@@H](CCC(N)=O)C(=O)O)[C@@H](C)O)[C@@H](C)CC)C(C)C [15-42OH] |  |  | cAMP Production (Fold Basal) 10 μM [2]: 1.02 ± 0.10 Fold Basal; cAMP Production (Fold Basal) 20 μM [2]: 1.01 ± 0.03 Fold Basal
CC(C)C[C@H](NC(=O)[C@H](CC(C)C)NC(=O)[C@H](Cc1c[nH]c2ccccc12)NC(=O)[C@H](CC(N)=O)NC(=O)[C@@H](NC(=O)[C@H](Cc1ccccc1)NC(=O)[C@H](CC(=O)O)NC(=O)[C@H](CCC(N)=O)NC(=O)[C@H](CCC(N)=O)NC(=O)CCCCCNC(=O)[C@H](Cc1ccccc1)NC(=O)[C@@H](NC(=O)CNC(=O)[C@H](CCC(=O)O)NC(=O)[C@H](C)NC(=O)[C@@H](N)Cc1ccc(O)cc1)[C@@H](C)O)C(C)C)C(=O)N[C@@H](C)C(=O)N[C@@H](CCC(N)=O)C(=O)N[C@@H](CCCCN)C(N)=O [GIP(1-6)(Ahx)1(19-30)NH2] (H-YAEGTF[Ahx]QQDFVNWLLAQK-NH2; N-terminus assumed) | 95.9 ± 8.6 Fold Basal | 62 ± 4.3% | 
CC(C)C[C@H](NC(=O)[C@H](CC(C)C)NC(=O)[C@H](Cc1c[nH]c2ccccc12)NC(=O)[C@H](CC(N)=O)NC(=O)[C@@H](NC(=O)[C@H](Cc1ccccc1)NC(=O)[C@H](CC(=O)O)NC(=O)[C@H](CCC(N)=O)NC(=O)[C@H](CCC(N)=O)NC(=O)CCCCCNC(=O)CCCCCNC(=O)[C@H](Cc1ccccc1)NC(=O)[C@@H](NC(=O)CNC(=O)[C@H](CCC(=O)O)NC(=O)[C@H](C)NC(=O)[C@@H](N)Cc1ccc(O)cc1)[C@@H](C)O)C(C)C)C(=O)N[C@@H](C)C(=O)N[C@@H](CCC(N)=O)C(=O)N[C@@H](CCCCN)C(N)=O [GIP(1-6)(Ahx)2(19-30)NH2] (H-YAEGTF[Ahx][Ahx]QQDFVNWLLAQK-NH2; N-terminus assumed) | 2.55 ± 0.84 Fold Basal | 75.3 ± 3.3% | 
CC(C)C[C@H](NC(=O)[C@H](CC(C)C)NC(=O)[C@H](Cc1c[nH]c2ccccc12)NC(=O)[C@H](CC(N)=O)NC(=O)[C@@H](NC(=O)[C@H](Cc1ccccc1)NC(=O)[C@H](CC(=O)O)NC(=O)[C@H](CCC(N)=O)NC(=O)[C@H](CCC(N)=O)NC(=O)CCCCCNC(=O)CCCCCNC(=O)CCCCCNC(=O)[C@H](Cc1ccccc1)NC(=O)[C@@H](NC(=O)CNC(=O)[C@H](CCC(=O)O)NC(=O)[C@H](C)NC(=O)[C@@H](N)Cc1ccc(O)cc1)[C@@H](C)O)C(C)C)C(=O)N[C@@H](C)C(=O)N[C@@H](CCC(N)=O)C(=O)N[C@@H](CCCCN)C(N)=O [GIP(1-6)(Ahx)3(19-30)NH2] (H-YAEGTF[Ahx][Ahx][Ahx]QQDFVNWLLAQK-NH2; N-terminus assumed) | 13.5 ± 1.5 Fold Basal | 67.1 ± 1% | 
CC[C@H](C)[C@H](NC(=O)[C@H](CO)NC(=O)[C@H](Cc1ccc(O)cc1)NC(=O)[C@H](CC(=O)O)NC(=O)[C@H](CO)NC(=O)[C@@H](NC(=O)[C@H](Cc1ccccc1)NC(=O)[C@@H](NC(=O)CNC(=O)[C@H](CCC(=O)O)NC(=O)[C@H](C)NC(=O)[C@@H](N)Cc1ccc(O)cc1)[C@@H](C)O)[C@@H](C)CC)C(=O)N[C@@H](C)C(=O)N[C@@H](CCSC)C(=O)NCCCCCC(=O)N[C@@H](CCC(N)=O)C(=O)N[C@@H](CCC(N)=O)C(=O)N[C@@H](CC(=O)O)C(=O)N[C@@H](Cc1ccccc1)C(=O)N[C@H](C(=O)N[C@@H](CC(N)=O)C(=O)N[C@@H](Cc1c[nH]c2ccccc12)C(=O)N[C@@H](CC(C)C)C(=O)N[C@@H](CC(C)C)C(=O)N[C@@H](C)C(=O)N[C@@H](CCC(N)=O)C(=O)N[C@@H](CCCCN)C(N)=O)C(C)C [GIP(1-14)(Ahx)1(19-30)NH2] (H-YAEGTFISDYSIAM[Ahx]QQDFVNWLLAQK-NH2; N-terminus assumed) | 102.1 ± 5.0 Fold Basal | 86.1 ± 1.9% | 
CC[C@H](C)[C@H](NC(=O)[C@H](CO)NC(=O)[C@H](Cc1ccc(O)cc1)NC(=O)[C@H](CC(=O)O)NC(=O)[C@H](CO)NC(=O)[C@@H](NC(=O)[C@H](Cc1ccccc1)NC(=O)[C@@H](NC(=O)CNC(=O)[C@H](CCC(=O)O)NC(=O)[C@H](C)NC(=O)[C@@H](N)Cc1ccc(O)cc1)[C@@H](C)O)[C@@H](C)CC)C(=O)N[C@@H](C)C(=O)N[C@@H](CCSC)C(=O)N[C@@H](CC(=O)O)C(=O)N[C@@H](CCCCN)C(=O)N[C@H](C(=O)N[C@@H](Cc1c[nH]cn1)C(=O)N[C@@H](CCC(N)=O)C(=O)N[C@@H](CCC(N)=O)C(=O)N[C@@H](CC(=O)O)C(=O)N[C@@H](Cc1ccccc1)C(=O)N[C@H](C(=O)N[C@@H](CC(N)=O)C(=O)N[C@@H](Cc1c[nH]c2ccccc12)C(=O)N[C@@H](CC(C)C)C(=O)N[C@@H](CC(C)C)C(=O)N[C@@H](C)C(=O)N[C@@H](CCC(N)=O)C(=O)N[C@@H](CCCCN)C(=O)NCC(=O)N[C@@H](CCCCN)C(=O)N[C@@H](CCCCN)C(=O)N[C@@H](CC(N)=O)C(=O)N[C@@H](CC(=O)O)C(=O)N[C@@H](Cc1c[nH]c2ccccc12)C(=O)N[C@@H](CCCCN)C(=O)N[C@@H](Cc1c[nH]cn1)C(=O)N[C@@H](CC(N)=O)C(=O)N[C@H](C(=O)N[C@H](C(=O)N[C@@H](CCC(N)=O)C(=O)O)[C@@H](C)O)[C@@H](C)CC)C(C)C)[C@@H](C)CC [GIP(1-42)OH, reference compound] |  | 100% | Receptor Binding % Displacement at 10 μM [1]: 100%
KIRQQDFVNWLLAQK-NH2 [16-30NH2] |  |  | cAMP Production (Fold Basal) 10 μM [2]: 1.04 ± 0.06 Fold Basal; cAMP Production (Fold Basal) 20 μM [2]: 0.80 ± 0.02 Fold Basal
YAAGTFISDYSIAM-OH [A3] |  |  | Percent displacement of 125I-GIP from wtGIPR cells [1]: unable to displace measurable
YAEGAFISDYSIAM-OH [A5] |  |  | Percent displacement of 125I-GIP from wtGIPR cells [1]: unable to displace measurable

— patent US20050137135A1 (priority 2002, published 2005)
